Data: US10385108B2, “Peptide analogs of alpha-melanocyte stimulating hormone” (Genzyme Corporation, priority 2008, dated 2019)

Assays:
[1] = test system: B16-F1 murine melanoma cells; experiment: Intracellular cAMP in B16-F1 melanoma cells; format: cell-based
Experimental: B16-F1 (melanoma cell line) cells from American Type Culture Collection (Manassas, Va.) were seeded into flat bottom 96 well plates at 5×10^4/well and cultured overnight in DMEM (Cambrex, Walkersville, Md.) supplemented with 2 mM glutamine, antibiotics (100 U/ml penicillin and 100 […]) and 10% heat-inactivated fetal bovine serum (Invitrogen, Grand Island, N.Y.). […] Cells were lysed and intracellular cAMP levels were measured by an enzyme immunoassay kit (Amersham Biosciences, Piscataway, N.J.). Forskolin (Sigma, St. Louis, Mo.) at 100 μM served as positive controls.
cAMP levels in B16-F1 melanoma cells after treatment with native α-MSH, RI α-MSH, or a scrambled control peptide were examined. The […] melanoma cell line expresses a high number of MCR1 receptors (3000-4000 receptors/cell) compared with macrophages cell lines which express only 100-200 receptors/cell. Therefore we selected to examine the effect of the RI α-MSH treatment on the melanoma cell line. Murine melanoma B16-F1 cells were treated with native α-MSH, RI α-MSH, or control scrambled peptide at concentrations 1 pg/ml-1 μg/ml. After 30 min, cells were lysed and intracellular cAMP was measured by an enzyme immunoassay. […] However, a higher concentration of RI α-MSH (100 ng/ml) was necessary to increase cAMP compared with native α-MSH which increased cAMP at a 10 pg/ml concentration. This difference in concentration of peptide necessary to increase cAMP levels may be the result of the binding affinity to the MCR1 receptor.
Murine melanoma B16-F1 cells were treated with native α-MSH, RI α-MSH, scrambled peptide control, KPV, or alanine substituted peptides of RI α-MSH at 1 μg/ml (FIG. 7B). […] Peptides designated 810, 811, and 812 have alanine substitutions in the central core tetrapeptide sequence (D-Trp D-Arg D-Phe D-His region; AA 5-8) (variant disclosed in SEQ ID NO:2) proposed to be involved in native α-MSH binding to the melanocortin receptor and its biological activity. […] The residues in the core tetrapeptide (wrfh) (variant disclosed in SEQ ID NO:2) and to a lesser extent, the methionine 4 of RI-MSH are critical for binding to MC1R.
B16-F1 murine melanoma cells were cultured into 96 well plates 5×10^4 cells/well overnight in media with L-glutamine and pen/strep and FBS. Media was removed and new media with IBMX was added to the cells for 1 hr. Cells were then treated with RI α-MSH, or RI α-MSH peptide analogs (890, 891, 892, 893, 894 or 895). Cells were lysed after 30 min using a cAMP assay kit and supernatant were used in the assay. Forskolin at 10 μM served as positive controls.
Intracellular cAMP was measured using a cAMP competition Assay Kit (Amersham Biosciences). All cell lysate samples were diluted 1:100 for analysis.
Murine melanoma B16-F1 cells were treated with RI α-MSH, or RI α-MSH analogs (869, 872, 880, 878, 886 and 890-895) at a concentration range of 10^−4-10^−11 M. cAMP levels from cells treated with RI α-MSH, or RI α-MSH analogs. […] See FIG. 22 for graphical data and Table 2 for EC50 data.

[2] = test system: C57BL/6 mice; experiment: MOG35-55 primed mice treated in the priming phase: recall response, cytokines, macrophage markers; format: in vivo
Experimental: C57BL/6 mouse splenocytes and lymph node cells were cultured in 96 well plates 5×10^5 cells/well. MOG35-55 or OVA 257-264 peptide was added to wells at a concentration of 25 μg/ml. Supernatant was collected at 48 hrs after MOG peptide stimulation. After 3 days in culture cells were pulsed with [3H] thymidine at 1 μCi/well for 8 hrs. Thymidine incorporation was measured by cpm.
Total RNA was extracted from tissues with TRIZOL® (Invitrogen, Carlsbad, Calif.). 1 μg of total RNA was reverse transcribed and used in quantitative PCR by using SYBR® green incorporation with reagents from Applied Biosystems (Foster City, Calif.) on an ABI 7900. A cDNA standard was run in each PCR for cytokine targets and message concentrations were normalized to mouse β-actin. […] The sequences for mouse IL-10 primers were forward: […] (SEQ ID NO:29) and reverse: […] (SEQ ID NO:30) (2). The sequences for mouse β-actin primers were: forward […] (SEQ ID NO:31) and reverse […] (SEQ ID NO:32) (3).
Flow cytometric analysis of inflammatory cytokine profiles of mouse serum or cell supernatant were measured using the Cytometric Bead Array Kit (CBA) made by BD Biosciences (San Jose, Calif.). Samples were processed according to the manufacturer's protocol.
On Day 9, spleen and draining lymph nodes were harvested and analyzed for recall responses to MOG35-55 peptide in vitro by [3H] thymidine incorporation.
Cytokine levels were evaluated through a cytometric bead array by flow cytometry.
Spleens from individual mice were harvested on Day 9 and mRNA cytokine expression was quantitated using real time PCR. […] Naïve mice that were not immunized with MOG peptide were used to quantitate baseline mRNA levels of TNF-α and IL-10.
Blood serum samples were also collected on day 9 of the study and evaluated for cytokine levels: TNF-α, MCP-1, IL-12, IL-10, and IL-6 (FIGS. 13C and 13D).

[3] = target: MC5R (Homo sapiens, UniProt P33032); experiment: Competitive binding with 125I-NDP-MSH, HEK293 membrane preparations, MC5R
Experimental: (§1) Binding analysis was done by Cerep laboratories (Paris, France) with coded samples.
(§2) The mixtures were filtered through 96-well GFC filters (Millipore, Billerica, Mass.), washed 3 times with binding buffer without BSA, dried and counted.
(§3) A competitive binding assay using a MCR panel including MCR 1, 3, 4, and 5 was performed.

[4] = target: MC1R (Homo sapiens, UniProt Q01726); experiment: Competitive binding with 125I-NDP-MSH, HEK293 membrane preparations, MC1R;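 further: Read-out: receptor-bound radioligand retained by filtration and counted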
Experimental: as §1, §2, §3

[5] = Peptide stability in plasma or PBS in vitro at 37° C.; format: in vitro ADME; conditions: 24 hours
Experimental: The stability of RI-α-MSH was determined by incubation in plasma or PBS in vitro at 37° C. for 24 hours. Aliquots were taken and proteins precipitated with 2 volumes of acetonitrile. α-MSH was used as a control and bradykinin as an internal standard. After centrifugation, samples were frozen at −80° C. until LC/MS/MS (MRM) analysis using a C18 column separation and positive electrospray ionization mode.

[6] = 100 μg i.p. days 2-8, harvested day 9

Sequence of MC1R (Q01726 whole entry): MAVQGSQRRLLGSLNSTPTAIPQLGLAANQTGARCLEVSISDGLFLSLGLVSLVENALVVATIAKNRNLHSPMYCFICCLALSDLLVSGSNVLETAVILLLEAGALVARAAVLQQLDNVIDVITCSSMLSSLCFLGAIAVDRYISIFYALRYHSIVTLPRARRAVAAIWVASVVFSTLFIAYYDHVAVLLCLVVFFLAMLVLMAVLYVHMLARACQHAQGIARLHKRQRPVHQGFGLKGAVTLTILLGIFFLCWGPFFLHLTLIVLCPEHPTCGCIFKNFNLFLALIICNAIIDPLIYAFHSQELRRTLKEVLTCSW
Sequence of MC5R (P33032 whole entry): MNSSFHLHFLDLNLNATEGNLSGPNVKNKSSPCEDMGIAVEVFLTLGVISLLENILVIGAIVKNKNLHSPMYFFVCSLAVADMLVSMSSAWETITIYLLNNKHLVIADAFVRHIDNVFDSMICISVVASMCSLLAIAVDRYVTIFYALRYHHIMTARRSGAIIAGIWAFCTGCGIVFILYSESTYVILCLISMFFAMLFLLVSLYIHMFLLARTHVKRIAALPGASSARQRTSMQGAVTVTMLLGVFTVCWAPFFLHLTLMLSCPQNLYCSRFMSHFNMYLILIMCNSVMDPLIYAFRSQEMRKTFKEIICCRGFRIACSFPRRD

Q: With `CSCC[C@@H](NC(=O)[C@@H](CCC(=O)O)NC(=O)[C@@H](Cc1c[nH]cn1)NC(=O)[C@@H](Cc1ccccc1)NC(=O)[C@@H](CCCNC(=N)N)NC(=O)[C@@H](Cc1c[nH]c2ccccc12)NC(=O)CNC(=O)[C@@H](CCCCN)NC(=O)[C@H]1CCCN1C(=O)[C@H](NC(C)=O)C(C)C)C(=O)N[C@H](CO)C(=O)N[C@H](Cc1ccc(O)cc1)C(=O)N[C@H](CO)C(N)=O` [RI-MSH, vpkGwrfhemsys] as the compound, how does the “cAMP levels, dose response (in words)” value ([1]; 1 pg/ml-1 μg/ml, 30 min, vs untreated or scrambled peptide) read?
A: The value was “significantly increased cAMP levels in a dose dependent manner”.

Q: And the “concentration necessary to increase cAMP” value ([1]; 30 min)?
A: The value was 100 ng/mL.

Q: And the EC50 ([1]; B16-F1 cells, 10^-4-10^-11 M, 30 min, IBMX)?
A: The EC50 was 9.7 µM.

Q: What about the “cAMP levels (in words)” value ([1]; peptide at 1 μg/ml) of the same compound?
A: The value was “significantly elevated”.

Q: And the “proliferative recall response of spleen cells to MOG35-55 (in words)” value [2, 6]?
A: The value was “slight reduction in recall responses”.

Q: And the “recall response of lymph node cells to MOG peptide (in words)” value [2, 6]?
A: The value was “did not show a significant difference”.

Q: And the “expression of CD86, CD40, CD14 on splenic CD11b+ or F4/80+ macrophages (in words)” value ([2]; 7 days of daily dosing, 100 μg/mouse)?
A: Its value is “no difference in the expression levels”.

Q: And the “TNF-α, IFNγ, IL-6 and MCP-1 levels in spleen cell supernatant vs PBS (in words)” value ([2]; cells stimulated with MOG35-55 in vitro)?
A: The value was “decrease”.

Q: What about the “serum IL-6 vs PBS (in words)” value ([2]; day 9) of the same compound?
A: The value was “decrease”.

Q: What about the “serum IL-10 (in words)” value ([2]; day 9) of the same compound?
A: Its value is “no difference”.

Q: What about the “serum MCP-1 vs PBS (in words)” value ([2]; day 9) of the same compound?
A: Its value is “significantly decreased”.

Q: What about the “serum TNF-α and IL-12 vs PBS (in words)” value ([2]; day 9) of the same compound?
A: Its value is “decrease”.

Q: And the “IL-10 and TNF-α mRNA in spleen vs PBS (in words)” value ([2]; priming phase, treated days 2-8, day 9)?
A: The value was “decreased levels”.

Q: What about the Ki ([3]; Ki MC5R, competition with 125I-NDP-MSH, cells noted in μM) of the same compound?
A: The Ki was roughly 25 µM.

Q: What about the “binding to MCR-5 (in words)” value ([3]; MCR panel 1, 3, 4, 5) of the same compound?
A: The value was “bind only to MCR-1”.

Q: And the “affinity for MC1R lower than that of the native MSH peptide” value [4]?
A: The value was 11 fold.

Q: What about the Ki ([4]; Ki MC1R, competition with 125I-NDP-MSH) of the same compound?
A: Its Ki is 0.0046 ± 0.0013 µM.

Q: And the “binding to MCR-1 (in words)” value ([4]; MCR panel 1, 3, 4, 5)?
A: The value was “bind only to MCR-1”.

Q: And the “stability in PBS (in words)” value [5]?
A: Its value is “stable both in PBS and plasma”.

Q: And the “stability in plasma (in words)” value ([5]; in vitro)?
A: Its value is “no detectable degradation over 24 hours”.
